Laboratory results: paper PMC7394103 (Frontiers in Pharmacology, 2020)

What was measured:
[1] = Cytotoxicity assay (CellTiter-Glo), SW982; assay type: cell-based; settings: human, SW982 cells; concentrations up to 50 µM; read-out: Cytotoxic effect SW982 IC50
Method: Cytotoxicity was analyzed using a CellTiter-Glo Luminescent Cell Viability Assay Kit (Promega), according to the manufacturer’s protocol. Briefly, cells were cultured at a density of 10^4 to 10^5 cells/well with different concentrations of test compounds (final concentration of DMSO was 1%) for the indicated periods of time (2, 12, or 24 h) at 37°C and 5% CO2. Following treatment, substrate was added to the cells, and the samples were analyzed with a Fluoroscan Ascent FL microplate reader.

[2] = system: IL-6 secretion by monocytic THP-1 cells; assay: IL-1β-induced IL-6 secretion by THP-1 cells (ELISA); assay type: cell-based; settings: Homo sapiens, 30 min compound, then 5 ng/ml IL-1β, 24 h
Method: (§1) FLS, HUVEC, SW982, and THP-1 cells were plated in 96 well plates (10^4 to 10^5 cells/well) for 48 h before treatment. At 2 days post-confluency, the cells were serum-starved and washed twice (with the exception of THP-1 cell, which were not washed) with FBS-free medium prior to the addition of test compounds. The cells were incubated in the presence or absence of test compounds or DMSO (vehicle control) for 30 min at 37°C in a 5% CO2 atmosphere, IL-1β (5 ng/ml) was added, and the cells were incubated for an additional 24 h. Culture supernatants were collected and stored at –80°C. The levels of MMP-1 and MMP-3 were determined in culture supernatants using commercially available ELISA kits according to the manufacturer’s instructions (R&D System, Minneapolis, MN, USA). IL-6 levels were also determined in the supernatants using a human IL-6 ELISA kit (BD Biosciences, San Jose, CA, USA).

MMP-3 secretion by HUVEC = assay: IL-1β-induced MMP-3 secretion by HUVEC (ELISA); assay type: cell-based; settings: Homo sapiens, 30 min compound, then 5 ng/ml IL-1β, 24 h
Method: as §1

IL-6 secretion by FLS = assay: IL-1β-induced IL-6 secretion by FLS (ELISA); assay type: cell-based; settings: Homo sapiens; 30 min compound, then 5 ng/ml IL-1β, 24 h
From the text: (§2) This study was approved by the Institutional Review Board of University of California, San Diego School of Medicine (La Jolla, CA, USA). Informed consent was obtained from all participants. Anonymous synovial tissue samples were obtained from six patients with RA at the time of total joint replacement (5 females, 1 male; age range, 44–72 years), as previously described ([Alvaro-Gracia et al., 1990]). The diagnosis of RA conformed to American College of Rheumatology 1987 revised criteria ([Arnett et al., 1988]). The synovium was minced and incubated with collagenase type VIII (0.5 mg/ml) (Sigma-Aldrich) in serum-free RPMI-1640 (Life Technologies, Grand Island, NY, USA) for 2 h at 37°C, filtered, extensively washed, and cultured in DMEM (Life Technologies) supplemented with 10% FBS (Gemini Bio Products, Calabasas, CA, USA), penicillin, streptomycin, gentamicin, and glutamine in a humidified 5% CO2 atmosphere. […]
(§3) FLS, HUVEC, SW982, and THP-1 cells were plated in 96 well plates (10^4 to 10^5 cells/well) for 48 h before treatment. […] The levels of MMP-1 and MMP-3 were determined in culture supernatants using commercially available ELISA kits according to the manufacturer’s instructions (R&D System, Minneapolis, MN, USA). IL-6 levels were also determined in the supernatants using a human IL-6 ELISA kit (BD Biosciences, San Jose, CA, USA).

MMP-1 secretion by FLS = assay: IL-1β-induced MMP-1 secretion by FLS (ELISA); assay type: cell-based; settings: Homo sapiens; 30 min compound, then 5 ng/ml IL-1β, 24 h
From the text: as §2, §3

LN cells from CIA mice = assay: CII-induced cytokine production by LN cells from treated CIA mice; assay type: in vivo; settings: 30 mg/kg; for IL-10 production by LN cells / proinflammatory cytokines (IL-1β, IL-5, IL-6, IL-17A, TNF, GM-CSF, RANKL) by LN cells: cells cultured 72 h with CII, vs saline
Method: At the end of the study (day 44), we isolated the axillary, inguinal, and popliteal LN and purified mononuclear cells from the LN. These cells were cultured in 6-well plates (5 × 10^6 cells/ml) without or with 50 μg/ml CII for 3 days in RPMI-1640 medium supplemented with 10% of fetal bovine serum (FBS) (Invitrogen, Carlsbad, CA, USA), 2 mM l-glutamine, 100 U/ml penicillin, 100 μg/ml streptomycin, 1 mM sodium pyruvate, and 0.1 mM nonessential amino acids ([Kochetkova et al., 2008]). The levels of cytokines, including tumor necrosis factor (TNF), granulocyte-macrophage colony-stimulating factor (GM-CSF), IL-1β, IL-5, IL-6, IL-10, IL-17A, and receptor activator of nuclear factor-κB ligand (RANKL) were measured in LN culture supernatants using ELISA kits (BD Biosciences, San Jose, CA, USA) for mouse cytokines.

AChE = target: T1, AChE (Homo sapiens, UniProt P22303); assay: AChE inhibition assay (Ellman-based kit); assay type: biochemical; settings: concentration causing 30% inhibition
T1 construct: purchased Sigma-Aldrich
Method: The inhibitory effect of test compounds on AChE activity was performed using an AChE inhibitor screening kit from Sigma-Aldrich. The kit is based on an improved Ellman method, whereby thiocholine produced from AChE activity forms a yellow color with 5,5’-dithiobis(2-nitrobenzoic acid), and the intensity the color (412 nm) is proportional to enzyme activity. […] IC30 was obtained by graphing the % inhibition of enzyme activity versus the logarithm of concentration of test compound using 5–7 tested concentrations.

[3] = system: MMP3 gene expression in FLS; assay: MMP3 gene expression in IL-1β-stimulated FLS (qPCR); assay type: cell-based, human; settings: 4, 10, 25 µM, 1 h before IL-1β (2 ng/ml) for 6 h, vs vehicle
Method: For MMP mRNA analysis, FLS were plated in six-well plates, cultured until 80% confluence, and subsequently serum starved (1% FBS/DMEM) for 24 h. […] The mRNA was isolated and reverse transcribed to obtain cDNA. Quantitative real-time polymerase chain reaction was performed using primer probe sets for MMP3 and glyceraldehyde 3-phosphate dehydrogenase (GAPDH) (Life Technologies). Threshold cycle values were obtained and normalized to GAPDH expression.

MMP-1 secretion by HUVEC = assay: IL-1β-induced MMP-1 secretion by HUVEC (ELISA); assay type: cell-based; settings: Homo sapiens, 30 min compound, then 5 ng/ml IL-1β, 24 h
Method: as §1

[4] = system: MMP-1 secretion by SW982 cells; assay: IL-1β-induced MMP-1 secretion by SW982 cells (ELISA); assay type: cell-based; settings: Homo sapiens, 30 min compound, then 5 ng/ml IL-1β, 24 h, read-out: SW-982 MMP-1 IC50
Method: as §1

T1 sequence (P22303 32-614): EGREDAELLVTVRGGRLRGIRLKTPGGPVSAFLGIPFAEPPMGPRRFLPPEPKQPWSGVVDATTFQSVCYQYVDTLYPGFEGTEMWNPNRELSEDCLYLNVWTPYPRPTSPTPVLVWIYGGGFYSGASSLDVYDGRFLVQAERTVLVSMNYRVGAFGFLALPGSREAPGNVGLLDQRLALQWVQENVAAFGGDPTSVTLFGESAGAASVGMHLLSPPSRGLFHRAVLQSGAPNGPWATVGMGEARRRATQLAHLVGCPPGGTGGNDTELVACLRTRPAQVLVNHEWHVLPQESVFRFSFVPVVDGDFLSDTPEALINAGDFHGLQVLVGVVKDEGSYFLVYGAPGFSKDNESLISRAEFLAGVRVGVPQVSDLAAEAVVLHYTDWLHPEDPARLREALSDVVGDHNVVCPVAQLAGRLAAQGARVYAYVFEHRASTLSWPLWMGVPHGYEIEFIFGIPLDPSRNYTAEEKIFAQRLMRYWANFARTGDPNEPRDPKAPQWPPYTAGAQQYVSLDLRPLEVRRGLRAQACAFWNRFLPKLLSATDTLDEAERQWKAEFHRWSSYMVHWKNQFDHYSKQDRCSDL

Structure (SMILES)	IC50 [1] [µM]	IC50 [2] [µM]	IC50 (MMP-3 secretion by HUVEC) [µM]	IC50 (IL-6 secretion by FLS) [µM]	IC50 (MMP-1 secretion by FLS) [µM]	IL-10 production by LN cells (LN cells from CIA mice)	proinflammatory cytokines (IL-1β, IL-5, IL-6, IL-17A, TNF, GM-CSF, RANKL) by LN cells (LN cells from CIA mice)	AChE inhibition IC30 (AChE) [µM]	MMP3 mRNA levels [3]	IC50 (MMP-1 secretion by HUVEC) [µM]	IC50 [4] [µM]	IL-17A, GM-CSF and RANKL production by LN cells (LN cells from CIA mice; compared to mice treated with TRYP)
O=C1c2ccccc2-n2c1nc1ccccc1c2=O [TRYP, indolo[2,1-b]quinazolin-6,12-dione]	19.1 ± 4.9	9.3 ± 2.7	12.8 ± 4.4	14.8 ± 1.8	1.2 ± 0.4	higher	significantly reduced	4.2 ± 1.2	dose-dependent reduction	3.4 ± 1.1	7.8 ± 2	–
O=c1c2ccccc2nc2n1-c1ccccc1/C2=N/O [TRYP-Ox, tryptanthrin-6-oxime]	> 50	0.3 ± 0.12	15.9 ± 5.8	7.4 ± 1.2	0.7 ± 0.1	higher	significantly reduced	12.0 ± 3.9	dose-dependent reduction	2.9 ± 0.1	2.6 ± 0.8	significantly lower
